# Test results published in patent publication US20220062340A1, “IMMUNOTHERAPEUTIC METHODS AND COMPOSITIONS” (KING'S COLLEGE LONDON, priority 2018, published 2022).
# Key:
# [1] = test system: integrin α4β7 on Treg surface; assay: Induction of integrin α4β7 on bulk Treg surface by RARα agonists (FIG. 6); type: cell-based; conditions: bulk CD4+CD25+CD127− Tregs, 12 days stimulation, reducing agonist concentrations
# Experimental: Bulk Tregs (CD4+CD25+CD127−) Tregs (50,000 per well) were expanded in vitro with reducing concentrations of the agonists. Culture conditions: 2 aCD3/aCD28 beads/cell, 1000IU/mL IL-2, 0.1 nM Rapamycin+Agonist in X-vivo 15. Following 12 days stimulation, cells were stained for CD4, CD25, CD127, FOXP3, Integrin a4, Integrin b7, CD15s, CD161 and acquired on a BD symphony flow cytometer. Data was analysed in Flowjo and Prism.
# [2] = test system: MAdCAM-1; assay: In-vitro trafficking assay, MAdCAM-1 coated Ibidi flow chamber; type: cell-based, human; conditions: cells treated with monoclonal antibody to integrin α4β7, FIG. 4
# Experimental: Ibidi (Martinsreid, Germany) μ-Slides VI″ were coated with recombinant human MAdCAM-1 (R&D Systems, Minneapolis, Minn.), at a concentration of 10μg/ml and incubated overnight. Cells from two CD patients that had previously undergone ex vivo expansion under two parallel conditions (Rapa and Rapa+RAR568) and had been frozen in liquid nitrogen were defrosted and rested overnight. Rested cells were then activated with rhCCL25 (R&D systems) and passed through the coated Ibidi flow chamber at a rate of 1 dyne/cm^2. The total number of cells, as well as those rolling, adherent and crawling was quantified from six randomly selected fields of view per treatment.
# In order to assess the physiological relevance of the induction of α4β7 expression by RAR568, treated and untreated Tregs from CD patients were passed through a MAdCAM-1 coated flow chamber (FIG. 10). The total number of cells adherent to the chamber, as well as their stages of rolling, adhesion and crawling, were compared to cells that were expanded under standard conditions.
# [3] = test system: Effector T cells (Teff); assay: Treg suppression assay (proliferation of CFSE-labelled Teff); type: cell-based, human; conditions: lowest (8:1) Teff:Treg titration, FIG. 2e
# Experimental: Effector T cells (Teff) were labelled with carboxyfluorescein succinimidyl ester (CFSE, Invitrogen) according to standard protocols. Cells were washed with phosphate buffered saline (PBS) to remove excess protein. Cells were then incubated with a 1 μM/L CFSE solution in the dark at room temperature for 4 minutes. The reaction was then quenched with 9 ml of complete medium.
# Teff were activated with anti-CD3/anti-CD28 micro beads at a bead: Teff ratio of 0.02:1. 1×10^5 Teff were then cultured either alone or with Tregs in serial dilutions. The ratios of Teff: Treg were 1:1, 2:1, 4:1, and 8:1. This was done in X-VIVO-15 and proliferation rates were assessed by flow cytometry after 5 days of incubation.
# Percentage suppression (S) of proliferation was calculated using the following formula:
# Where c=percentage of proliferating precursors in the presence of Tregs and d=percentage of proliferating precursors in the absence of Tregs.
# [4] = test system: integrin β7 on Tregs; assay: Dose response of integrin β7 induction on expanded Tregs; type: cell-based; conditions: Homo sapiens; Tregs in in vitro culture, FIG. 2c; read-out: EC50 to induce the expression of integrin β7
# Experimental: (§1) FACS-sorted Treg populations were plated at 1×10^6 or 0.5×10^6 in X-VIVO-15 medium and activated with anti-CD3/anti-CD28 coated beads (Dynabeads®, Invitrogen, Paisley, UK) at 1:1 bead: cell ratio. Rapamycin was added at day 0 of culture at a final concentration of 100 nM/L +/−ATRA 1 nM/L or RAR568 1 nM/L. Next, 1,000 IU/ml recombinant human IL-2 (rhlL-2) (Proleukin®, Novartis, Camberley, UK) was added at day 5 of culture. Cells were re-stimulated every 10-12 days and expanded for a total of 24-30 days. The phenotype and suppressive ability were assessed at the end of the culture period.
# (§2) Flow cytometry panels have been designed to assess the subtypes of regulatory T cells in patients with CD as well as their expression of gut homing molecules. Gating was performed based on natural populations when assessing for CD4^+CD25^highCD127low populations, as well as for CD45RA^+ Treg populations. Additionally, to minimize bias in the assessment of expression of gut homing markers and transcription factors, a fluorochrome minus one (FMO) panel was added for each marker of interest in each experiment that was performed.
# [5] = test system: FOXP3 in Tregs; assay: FOXP3 expression of ex vivo expanded Tregs; type: cell-based, human; conditions: Tregs expanded in the presence of the agonist
# Experimental: as §1, §2
# [6] = test system: Ex vivo expanded Tregs; assay: IL-17 and IFNγ production under pro-inflammatory cytokine challenge (ELISA); type: cell-based, human; conditions: Tregs expanded ex vivo in the presence of the agonist, FIG. 2f
# Experimental: Cytokine concentrations were measured using the Ready-SET-Go sandwich ELISA kits from eBioscience.
# Ex vivo expanded Tregs were activated with CD3/CD28 beads at a 1:20 ratio and cultured at 10^6cells/m1 in X-VIVO for 5 days at 37° C./5% CO2, supplemented with the following cytokine cocktail: A) IL-2 (10 IU/mL, Proleukin); (B) IL-2, IL-1 (10 ng/mL), IL-6 (4 ng/mL) and transforming growth factor-β (TGF-β (5 ng/mL), IL-21 (25 ng/mL), IL-23 (25 ng/mL) (all R&D Systems). Supernatant IL-17 and interferon gamma (IFNγ) concentrations were measured by ELISA.
# [7] = test system: integrin α4β7 on Tregs; assay: α4β7 expression on ex vivo expanded CD45RA+ Tregs from CD patients (flow cytometry); type: cell-based, human; conditions: CD4+CD25hiCD127loCD45RA+ Tregs cultured with rapamycin and high dose IL-2 plus the agonist; mean ± SD
# Experimental: “Complete X-VIVO-15” (Lonza, Walkersville, MD) was used for ex vivo Treg expansion, Treg cytokine challenge experiments and Treg suppression assays. This was supplemented with 100 nM or 10 nM Rapamycin and all-trans retinoic acid (ATRA) 2 μM or 1 nM, or Rapamycin and RAR568 1 nM.
# as §1
# as §2, with “performed. […]” for “performed.”
# [8] = test system: Tregs from CD patients; assay: Gene array of expanded Tregs from CD patients; type: cell-based, human
# Experimental: Gene array analyses were carried out using Partek® software with a 1-way ANOVA to assess for differential gene expression.
# 1) RNA extraction was performed using Qiagen RNEasy mini/micro kits as per manufacturer's instructions. The samples were checked for RNA quality using the Agilent 2100 Bioanalyzer and quantified using the Nanodrop (ND-1000 Spectrophotometer). Samples which passed QC (RIN>8) were chosen such that input amount of each sample was 3 ng.
# 2) SPIA cDNA was generated using the “Ovation Pico WTA System V2” kit from Nugen, following the manufacturer's instructions.
# 3) The SPIA cDNA was subjected to a QC check to assess quality (Agilent 2100 Bioanalyzer) and quantity (Nanodrop ND-1000 Spectrophotometer) for the next stage.
# 4) The SPIA cDNA was fragmented and Biotin-labelled using the “Encore Biotin Module” from Nugen according to the manufacturer's instructions and passed through QC checks to assess fragmentation size (Agilent 2100 Bioanalyzer).
# 6) Hybridization cocktails were prepared of the fragmented labelled-cDNA according to Nugen's recommendations and hybridized at 45° C. overnight in an oven.
# 7) The arrays were washed and stained using wash protocol FS450_0002 (Affymetrix protocol recommended for Human Gene 2.0 Arrays on the GeneChip Fluidics station 450.
# 8) The arrays were scanned using the Affymetrix GeneChip Scanner.
# Gene expression analyses were performed on Tregs from CD patients expanded in the presence of Rapa+ATRA, Rapa+RAR568 or rapamycin only (n=3 in each group). […] CD161 has previously been described as a marker of T helper (Th) 17-like Tregs^32. This was not observed in the RAR568-treated group. […] IL-18 Receptor 1 and STAT4 are responsible for Th1 lineage commitment and IFNγ production, both have been independently identified as IBD disease related polymorphisms on GWAS^33-36. CD38 has been identified as a marker associated with mature T cells, signaling reduced proliferation, but an increased ability to produce pro-inflammatory cytokines such as IFNγ^37. Ligation of GPR174 negatively affects Treg accumulation and function^38. No clear difference in transcripts for canonical pathways were identified when ATRA treated cells were compared with RAR568 treated cells.
# To assess for off target RARγ effects, we compared the gene expression profiles of RAR568 and ATRA treated cells to a published dataset of RARγ target genes^39. […] Given the efficacy at inducing α4β7 and lack of off target effects, RAR568 fulfilled the target product profile for an agent that could be used for ex vivo Treg expansion for cell-based therapy purposes. Therefore, we probed this effect of RAR568 on Tregs from CD patients in functional in vitro and in vivo trafficking assays.
compound,measurement,setting,value
CC1(C)CCC(C)(C)c2cc(C(=O)Nc3ccc(C(=O)O)cc3)ccc21 [AM580],induction of integrin α4β7 on Treg surface,[1],comparable effects
Vedolizumab: monoclonal antibody to integrin α4β7,cell migration of RAR568-treated Tregs in MAdCAM-1 coated flow chamber,[2],All stages of cell migration were blocked
"CC1=C(/C=C/C(C)=C/C=C/C(C)=C/C(=O)O)C(C)(C)CCC1 [ATRA, all-trans retinoic acid, reference compound]",Suppressive ability of expanded Tregs,[3],became less suppressive at the lowest titration
same,EC50,[4],1.5 nM
same,FOXP3 expression of expanded Tregs,[5]; mean ± SD,86.15±19.88%
same,"FOXP3 expression, range",[5]; range,40.2-99.7
same,IFNγ production following pro-inflammatory cytokine challenge,[6],did not produce
same,IL-17 production following pro-inflammatory cytokine challenge,[6],did not produce
same,α4β7 expression of expanded Tregs,[7],74.21±25.89
same,transcripts for CD161,"[8]; compared to rapamycin only, n=3",significant increase
same,"increase in the expression of STAT4, IL18R1, CD38 and GPR174","[8]; compared to rapamycin only, p<0.05, FIG. 3a",> 2 fold
same,RARγ target genes upregulated,"[8]; off target RARγ effects, compared to published dataset, FIG. 3b",Eleven
"CC1(C)CCC(C)(C)c2cc(NC(=O)c3ccc(C(=O)O)cc3)ccc21 [AM80, tamibarotene]",induction of integrin α4β7 on Treg surface,[1],comparable effects
